Converted amounts (≈) assume the structure as drawn.
Key:
[1] = Solubility of the active compounds in distilled water
physchem = details: water

SMILES | solubility [1] [µg/mL] | solubility (physchem) [µg/mL]
COC(=O)N(OC)c1ccccc1COc1ccn(-c2ccc(Cl)cc2)n1 [Pyraclostrobin] | 2.4 (≈ 6.19 µM) | 
O=C(Nc1ccccc1-c1ccc(Cl)cc1)c1cccnc1Cl [Boscalid] |  | 4.6 (≈ 13.4 µM)

Reference: patent US20080167189A1, “Polymer Compositions and Their Use in the Production of Active or Effective Ingredient Compositions” (Basf Aktiengesellschaft, priority 2005, published 2008)
